Toxic doses and inconclusive results are not listed. The calls were made as follows: active = survival T/C of 150% or more; inactive = T/C below 125% in these data.
Tested on: P388 leukemia ip, CD2F1 mice, survival T/C
Test: NCI In Vivo Anticancer Drug Screen. Data for tumor model P388 Leukemia (intraperitoneal) in CD2F1 (CDF1) mice
Details: endpoint: median survival time, higher = longer survival
Procedure, shortened: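 Mice carrying the transplanted tumor received test compound or vehicle. Survival was recorded in each group, and the value is the treated-group measurement divided by that of the vehicle-treated control group.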

Measured: T/C

C/C(=C1/SC(=S)NC1=O)c1ccc(Cl)c(O)c1
inactive: dose: 60.0 mg/kg/injection, schedule: Q01DX005 (ip), vehicle: saline with Tween-80 99 % of control | dose: 120.0 mg/kg/injection, schedule: Q01DX005 (ip), vehicle: saline with Tween-80 97 % of control | dose: 240.0 mg/kg/injection, schedule: Q01DX005 (ip), vehicle: saline with Tween-80 88 % of control

OC1CN(c2ccccc2)CC1O (stereo not drawn)
inactive: dose: 50.0 mg/kg/injection, schedule: Q01DX005 (ip), vehicle: Klucel (hydroxypropylcellulose) (HPC) 105 % of control | dose: 100.0 mg/kg/injection, schedule: Q01DX005 (ip), vehicle: Klucel (hydroxypropylcellulose) (HPC) 96 % of control | dose: 200.0 mg/kg/injection, schedule: Q01DX005 (ip), vehicle: Klucel (hydroxypropylcellulose) (HPC) 97 % of control

C=C[C@H]1C2=CCOC(=O)C2=CO[C@@H]1OC1OC(CO)C(O)C(O)C1O (stereo partly drawn)
inactive: dose: 0.75 mg/kg/injection, schedule: Q01DX005 (ip), vehicle: water 95 % of control | dose: 1.5 mg/kg/injection, schedule: Q01DX005 (ip), vehicle: water 95 % of control | dose: 3.0 mg/kg/injection, schedule: Q01DX005 (ip), vehicle: water 95 % of control | dose: 6.0 mg/kg/injection, schedule: Q01DX005 (ip), vehicle: water 99 % of control

C/C=C/c1cnc2nc(N)nc(N)c2n1
inactive: dose: 100.0 mg/kg/injection, schedule: Q04DX002 (ip), vehicle: saline with Tween-80 99 % of control | dose: 200.0 mg/kg/injection, schedule: Q04DX002 (ip), vehicle: saline with Tween-80 104 % of control | dose: 400.0 mg/kg/injection, schedule: Q04DX002 (ip), vehicle: saline with Tween-80 107 % of control

Cc1nn(C(=S)S)c(C)c1N=Nc1cccc(Cl)c1Cl
inactive: dose: 100.0 mg/kg/injection, schedule: Q01DX001 (ip), vehicle: saline with Tween-80 91 % of control | dose: 200.0 mg/kg/injection, schedule: Q01DX001 (ip), vehicle: saline with Tween-80 94 % of control | dose: 400.0 mg/kg/injection, schedule: Q01DX001 (ip), vehicle: saline with Tween-80 108 % of control

O=P(c1ccccc1)(c1ccccc1)c1ccccc1.O=P(c1ccccc1)(c1ccccc1)c1ccccc1.O=P(c1ccccc1)(c1ccccc1)c1ccccc1.O=P(c1ccccc1)(c1ccccc1)c1ccccc1.[Co+2].[O-][Cl+3]([O-])([O-])O
inactive: dose: 50.0 mg/kg/injection, schedule: Q01DX009 (ip), vehicle: saline with Tween-80 96 % of control | dose: 100.0 mg/kg/injection, schedule: Q01DX009 (ip), vehicle: saline with Tween-80 99 % of control
